Test results taken from publication PMC10056443, “Derivatives of Amaryllidaceae Alkaloid Ambelline as Selective Inhibitors of Hepatic Stage of Plasmodium berghei Infection In Vitro” (Pharmaceutics, 2023).
Like-named read-outs stand apart in the source and are kept apart here.

How the values were obtained:
[1] = system: P. falciparum NF54 ring-stage synchronized cultures; assay: In vitro activity against P. falciparum blood stages (flow cytometry, SYBR green I); format: cell-based, Plasmodium falciparum; conditions: Control = 7.76333, 48 h
Procedure: Activity against the blood stage of P. falciparum infection was assessed by flow cytometry analysis following the incubation of either test compounds or the drug vehicle (DMSO) with ring-stage synchronized parasite cultures, as previously described. Stock solutions of the test compounds, as well as of the positive control compound chloroquine, were prepared in DMSO and diluted to test concentrations in complete malaria culture medium (CMCM), i.e., 1640 RPMI medium supplemented with 25 mM HEPES, 2.4 mM L-glutamine, 50 µg/mL gentamicin, 0.5% w/v Albumax, 11 mM glucose, 1.47 mM hypoxanthine, and 37.3 mM NaHCO3. Samples at tested concentration were then incubated with ring-stage synchronized cultures of P. falciparum NF54 at 2.5% hematocrit and at approximately 1% parasitemia in 96-well plates at 37 °C in a 5% CO2 and 5% O2 atmosphere. Forty-eight hours post incubation, parasite load was assessed by flow cytometry, upon staining with the DNA-specific dye SYBR green I. Approximately 100,000 events were analyzed in each flow cytometry measurement.

[2] = system: hepatic stage of P. berghei; assay: In vitro activity against P. berghei hepatic stages (luciferase-expressing sporozoites in Huh-7 cells, bioluminescence); format: cell-based, Plasmodium berghei; design: INFECTION (IC50 determination): unit not given here; conditions: for activity at 1 µM / activity at 10 µM / IC50: Plasmodium berghei; for activity at 1 µM / activity at 10 µM: Huh-7, 48 h, read-out: INFECTION Ø screening; for activity at 1 µM / activity at 10 µM / INFECTION (IC50 determination): DMSO = 100; for activity against P. berghei hepatic stages: screening at 10 and 1 µM / IC50 determination
How it was run: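 Huh-7 hepatoma cells pretreated with compounds 1 h, then infected with luciferase-expressing P. berghei sporozoites (1 × 10^4/well, 1:1 ratio) and incubated at 37 °C.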

Huh-7 cell line = assay: Huh-7 cell confluency by alamarBlue assay during hepatic-stage test; format: cell-based
How it was run: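 Huh-7 human hepatoma cells pre-treated with compound in infection medium 1 h before luciferase-expressing P. berghei sporozoites were added (1:1, 1 × 10^4 per well), then incubated 46 h at 37 °C, 5% CO2. Confluency assessed indirectly by alamarBlue; IC50 from nonlinear-regression fit of normalized dose-response curves.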

HepG2 cells = assay: Cytotoxicity assessment in vitro (MTT assay); format: cell-based
How it was run: (§1)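 Human HepG2 hepatocellular carcinoma cells (passage 20–25) were treated with compound at 10 μM in triplicate for 24 h at 37 °C, 5% CO2. Viability was then measured by MTT: 3 h incubation, formazan dissolved in DMSO, absorbance read at 570 nm.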

[3] = Cytotoxicity assessment in vitro (MTT assay); format: cell-based; conditions: human
How it was run: as §1

Plasmodium = system: Plasmodium; design: method as in PMID 29243039; conditions: tested previously, cited from earlier work
[4] = Huh-7, mean, unit (Table 1: µM), read-out: Antiplasmodial activity - Ø IC50
[5] = Huh-7, replicate 1, unit (Table 1: µM), read-out: Antiplasmodial activity - IC50 determination, 1. measurement
[6] = Huh-7, replicate 2, unit (Table 1: µM), read-out: Antiplasmodial activity - IC50 determination, 2. measurement
[7] = hepatic stage, Huh-7 cells, parasite load 48 h post-infection, read-out: IC50 P. berghei
[8] = Huh-7, replicate 3, unit (Table 1: µM), read-out: Antiplasmodial activity - IC50 determination, 3. measurement

SMILES	Ø screening, blood stage parasite load ([1]; at 10 nM)	Ø screening, blood stage parasite load ([1]; at 500 nM)	Ø screening, blood stage parasite load ([1]; at 100 nm)	activity at 1 µM [2]	activity at 10 µM [2]	IC50 [2, 4]	IC50 [2, 5]	IC50 [2, 6]	IC50 [2, 7]	CELL CONFLUENCY Ø screening (Huh-7 cell line; human, 46 h, 1 µM, pH 7)	CELL CONFLUENCY Ø screening (Huh-7 cell line; human, 46 h, 10 µM, pH 7)	1. screening of cytotoxic potential, HepG2 cell line (HepG2 cells; human, 24 h, 10 µM)	2. screening of cytotoxic potential, HepG2 cell line (HepG2 cells; human, 24 h, 10 µM)	3. screening of cytotoxic potential, HepG2 cell line (HepG2 cells; human, 24 h, 10 µM)	Ø screening, HepG2 (sheet Graphs) (HepG2 cells; human, 24 h, 10 µM)	viability at 24 h, 10 µM [3]	IC50 [2, 8]	further results
COc1c2c(cc3c1OCO3)[C@]13C=C[C@H](OC)C[C@H]1N(C2)C[C@H]3OC(=O)c1ccc(C)cc1 [28g, 11-O-(4-Methylbenzoyl)ambelline]	5.187	4.26	4.963	23.1%	0.21%	0.402 µM	0.345 µM	0.46 µM	0.402 ± 0.081 µM	89.36	93.96	50.18	56.25	43.46	49.96	50 ± 6%	–	–
COc1c2c(cc3c1OCO3)[C@]13C=C[C@H](OC)C[C@H]1N(C2)C[C@H]3OC(=O)c1cc(C)cc(C)c1 [28h, 11-O-(3,5-Dimethylbenzoyl)ambelline]	8.137	6.735	6.763	8.82%	0.852%	0.1 µM	0.0992 µM	0.0828 µM	0.1 ± 0.018 µM	–	–	–	–	–	–	–	0.118 µM	CELL CONFLUENCY Ø screening (Huh-7 cell line; at 1 μM, DMSO = 100, in % (unit assumed)): 93.78; CELL CONFLUENCY Ø screening (Huh-7 cell line; at 10 μM, DMSO = 100, in % (unit assumed)): 54.73; Ø screening, HepG2 (sheet Graphs) (HepG2 cells; c = 10 μM, DMSO = 100, in %): 74.24; 1. screening of cytotoxic potential, HepG2 cell line (HepG2 cells; c = 10 μM, replicate 1, in %): 61.45; 2. screening of cytotoxic potential, HepG2 cell line (HepG2 cells; c = 10 μM, replicate 2, in %): 88.22; 3. screening of cytotoxic potential, HepG2 cell line (HepG2 cells; c = 10 μM, replicate 3, in %): 73.05; viability at 24 h, 10 µM ([3]; c = 10 µM, 24 h, MTT, read-out: HepG2 % of cell viability compared to non-treated control (100%)): 74 ± 13%
COc1cc(OC)cc(C(=O)O[C@@H]2CN3Cc4c(cc5c(c4OC)OCO5)[C@@]24C=C[C@H](OC)C[C@@H]34)c1 [28m, 11-O-(3,5-Dimethoxybenzoyl)ambelline]	7.527	6.707	7.237	4.97%	0.465%	0.0483 µM	0.0413 µM	0.0646 µM	0.048 ± 0.014 µM	75.47	66.23	83.99	94	84.39	87.46	87 ± 6%	0.0389 µM	INFECTION (IC50 determination) ([2]; at 0.0001 µM): 91.9843; INFECTION (IC50 determination) ([2]; at 0.001 µM): 94.6285; INFECTION (IC50 determination) ([2]; at 0.01 µM): 82.6124; INFECTION (IC50 determination) ([2]; at 0.05 µM): 46.9733; INFECTION (IC50 determination) ([2]; at 0.1 µM): 24.6613; INFECTION (IC50 determination) ([2]; at 0.5 µM): 8.963; Huh-7 cell viability (Huh-7 cell line): cell viability was not affected at antiplasmodial-active concentrations; CELL CONFLUENCY (IC50 determination) (Huh-7 cell line; human, 46 h, 0.0001 µM, pH 7): 108.569; CELL CONFLUENCY (IC50 determination) (Huh-7 cell line; human, 46 h, 0.001 µM, pH 7): 114.348; CELL CONFLUENCY (IC50 determination) (Huh-7 cell line; human, 46 h, 0.01 µM, pH 7): 105.456; CELL CONFLUENCY (IC50 determination) (Huh-7 cell line; human, 46 h, 0.05 µM, pH 7): 107.735; CELL CONFLUENCY (IC50 determination) (Huh-7 cell line; human, 46 h, 0.1 µM, pH 7): 107.6; CELL CONFLUENCY (IC50 determination) (Huh-7 cell line; human, 46 h, 0.5 µM, pH 7): 97.6188
COc1c2c(cc3c1OCO3)[C@]13C=C[C@H](OC)C[C@H]1N(C2)C[C@H]3OC(=O)c1cccc([N+](=O)[O-])c1 [28p, 11-O-(3-Nitrobenzoyl)ambelline]	4.593	4.517	4.83	48.1%	1.45%	1.53 µM	1.46 µM	1.36 µM	1.53 ± 0.22 µM	87.05	79.58	70.36	72.83	81.93	75.04	75 ± 6%	1.78 µM	–
COc1c2c(cc3c1OCO3)[C@]13C=C[C@H](OC)C[C@H]1N(C2)C[C@H]3OC(=O)c1ccc([N+](=O)[O-])cc1 [28q, 11-O-(4-Nitrobenzoyl)ambelline]	6.94	4.487	4.835	64.6%	3.9%	1.2 µM	1.17 µM	1.03 µM	1.2 ± 0.18 µM	102	102.2	48.34	59.99	49.2	52.51	53 ± 6%	1.39 µM	–
COc1c2c(cc3c1OCO3)[C@]13C=C[C@H](OC)C[C@H]1N(C2)C[C@H]3OC(=O)c1ccc(C)c([N+](=O)[O-])c1 [28r, 11-O-(4-Methyl-3-nitrobenzoyl)ambelline]	8.177	7.467	7.743	22.2%	1.01%	0.41 µM	0.358 µM	0.408 µM	0.41 ± 0.054 µM	94.75	52.08	69.43	55.1	69.8	64.78	65 ± 8%	0.465 µM	–
COc1c2c(cc3c1OCO3)[C@]13C=C[C@H](OC)C[C@H]1N(C2)C[C@H]3OC(=O)c1ccc([N+](=O)[O-])cc1Cl [28s, 11-O-(2-Chloro-4-nitrobenzoyl)ambelline]	7.46	7.523	7.653	48.2%	1.4%	–	–	–	–	95.79	77.1	55.56	46.62	58.6	53.59	54 ± 6%	–	activity against P. berghei hepatic stages [2]: not dose-dependent
COc1c2c(cc3c1OCO3)[C@]13C=C[C@H](OC)C[C@H]1N(C2)C[C@H]3OC(=O)c1ccc(Cl)c([N+](=O)[O-])c1 [28t, 11-O-(4-Chloro-3-nitrobenzoyl)ambelline]	7.33	7.613	7.113	114%	92.6%	–	–	–	–	96.94	92.83	13.64	17.76	14.19	15.2	15 ± 2%	–	activity against P. berghei hepatic stages [2]: not dose-dependent
COC1C=CC23c4cc5c(cc4CN(CC2O)C3C1)OCO5 (stereo not shown) [compound 29, haemanthamine]	–	–	–	–	–	–	–	–	–	–	–	–	–	–	–	–	–	antiplasmodial effect (words) (Plasmodium): without notable activity; antiplasmodial effect (words) (Plasmodium; listed as haemanthamine): neither haemanthamine nor ambelline showed inhibition
